Data as given in patent US20240368159A1, “HPK1 DEGRADERS, COMPOSITIONS COMPRISING THE HPK1 DEGRADER, AND METHODS OF USING THE SAME” (BIOFRONT LTD, priority 2021, published 2024).

How the values were obtained:
HPK1 p-SLP-76 = HPK1 p-SLP-76 inhibition assay in human PBMC (HTRF); assay type: cell-based; conditions: 6 h compound, anti-CD3 stimulation 20 min
Summary of the method: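 Human PBMC starved overnight in 0.5% FBS, treated with compound 6 h at 37° C, then stimulated with anti-CD3 (10 ug/mL final) for 20 min. Lysates analysed for phospho-SLP76 by HTRF after overnight detection-antibody incubation at 25° C.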

HPK1 protein [1] = target: T1, HPK1 protein (Mus musculus, UniProt P70218); experiment: HPK1 protein degradation in mouse pan T cell (western blot); assay type: cell-based; conditions: 18 h incubation
T1 construct: the CD3+ T cell population was isolated from spleenocytes of mice; endogenous in cells; host or cells: primary mouse splenic CD3+ (pan) T cells
T1 sequence (P70218 1-827): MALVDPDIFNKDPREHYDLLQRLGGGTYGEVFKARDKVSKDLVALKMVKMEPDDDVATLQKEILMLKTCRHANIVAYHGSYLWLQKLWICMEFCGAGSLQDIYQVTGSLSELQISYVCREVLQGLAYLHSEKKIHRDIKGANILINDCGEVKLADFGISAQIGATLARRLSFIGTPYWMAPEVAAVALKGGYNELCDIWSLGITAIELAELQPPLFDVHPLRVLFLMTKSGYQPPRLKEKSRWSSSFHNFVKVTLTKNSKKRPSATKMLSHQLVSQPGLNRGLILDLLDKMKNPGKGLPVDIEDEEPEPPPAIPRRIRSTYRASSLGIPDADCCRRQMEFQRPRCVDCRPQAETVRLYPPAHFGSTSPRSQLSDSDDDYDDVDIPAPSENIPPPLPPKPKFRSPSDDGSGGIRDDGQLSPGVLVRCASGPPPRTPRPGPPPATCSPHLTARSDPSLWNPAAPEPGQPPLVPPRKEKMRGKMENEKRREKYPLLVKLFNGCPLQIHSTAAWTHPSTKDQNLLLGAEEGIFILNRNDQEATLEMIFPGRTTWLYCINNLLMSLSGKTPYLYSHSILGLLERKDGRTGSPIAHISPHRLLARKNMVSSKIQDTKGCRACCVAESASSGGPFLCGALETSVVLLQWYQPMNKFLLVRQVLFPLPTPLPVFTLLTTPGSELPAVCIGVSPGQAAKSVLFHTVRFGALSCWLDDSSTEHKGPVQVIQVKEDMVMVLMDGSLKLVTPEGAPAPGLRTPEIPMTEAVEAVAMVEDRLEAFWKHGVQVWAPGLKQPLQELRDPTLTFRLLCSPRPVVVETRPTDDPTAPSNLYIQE
Summary of the method: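 CD3+ pan T cells were isolated from mouse splenocytes and incubated 18 h with a range of compound concentrations. Lysates were normalised by BCA and run on SDS-PAGE. HPK1 was detected by western blot with an anti-human HPK1 polyclonal antibody, with β-actin as loading control.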

HPK1 protein [2] = target: T2, HPK1 protein (Homo sapiens, UniProt Q92918); experiment: HPK1 protein degradation in human PBMC (western blot); assay type: cell-based; conditions: 18 h incubation
T2 construct: Frozen human PBMC were purchased from Shanghai OribioTech; host or cells: human PBMC
Summary of the method: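 Recovered frozen human PBMC in RPMI1640 exposed to a range of compound concentrations for 18 h. Lysates normalized by BCA and HPK1 level read by western blot with anti-HPK1 polyclonal antibody, β-actin as loading control.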
T2 sequence (Q92918 whole entry): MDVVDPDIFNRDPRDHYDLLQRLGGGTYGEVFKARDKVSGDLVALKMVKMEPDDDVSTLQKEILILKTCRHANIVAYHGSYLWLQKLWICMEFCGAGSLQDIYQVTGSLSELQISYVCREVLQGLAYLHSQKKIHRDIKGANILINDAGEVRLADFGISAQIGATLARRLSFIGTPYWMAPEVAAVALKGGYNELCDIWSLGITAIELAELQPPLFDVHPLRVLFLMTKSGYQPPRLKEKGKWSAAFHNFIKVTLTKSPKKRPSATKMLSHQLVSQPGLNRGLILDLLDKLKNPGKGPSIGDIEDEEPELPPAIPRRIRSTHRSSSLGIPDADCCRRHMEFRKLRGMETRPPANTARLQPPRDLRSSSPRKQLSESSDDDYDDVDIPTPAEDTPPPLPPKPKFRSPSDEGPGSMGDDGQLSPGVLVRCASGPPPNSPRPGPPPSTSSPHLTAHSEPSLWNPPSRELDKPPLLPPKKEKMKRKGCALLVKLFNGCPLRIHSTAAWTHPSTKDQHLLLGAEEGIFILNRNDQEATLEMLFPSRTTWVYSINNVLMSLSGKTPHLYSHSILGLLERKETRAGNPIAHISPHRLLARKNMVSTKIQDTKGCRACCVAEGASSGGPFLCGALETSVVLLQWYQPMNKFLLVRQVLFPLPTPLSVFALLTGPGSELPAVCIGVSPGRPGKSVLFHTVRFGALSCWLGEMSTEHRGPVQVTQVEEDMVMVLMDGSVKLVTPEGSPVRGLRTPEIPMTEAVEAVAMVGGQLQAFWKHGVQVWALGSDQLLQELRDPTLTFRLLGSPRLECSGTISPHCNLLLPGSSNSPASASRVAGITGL

HPK1 protein [3] = target: T3, HPK1 protein (Homo sapiens, UniProt Q92918); experiment: HPK1 enzyme inhibition assay (ADP-Glo); assay type: biochemical; conditions: MBP substrate, ATP, ADP-Glo readout
T3 construct: purchased Signal Chem M23-11G-10
T3 sequence (Q92918 1-346 limits assumed): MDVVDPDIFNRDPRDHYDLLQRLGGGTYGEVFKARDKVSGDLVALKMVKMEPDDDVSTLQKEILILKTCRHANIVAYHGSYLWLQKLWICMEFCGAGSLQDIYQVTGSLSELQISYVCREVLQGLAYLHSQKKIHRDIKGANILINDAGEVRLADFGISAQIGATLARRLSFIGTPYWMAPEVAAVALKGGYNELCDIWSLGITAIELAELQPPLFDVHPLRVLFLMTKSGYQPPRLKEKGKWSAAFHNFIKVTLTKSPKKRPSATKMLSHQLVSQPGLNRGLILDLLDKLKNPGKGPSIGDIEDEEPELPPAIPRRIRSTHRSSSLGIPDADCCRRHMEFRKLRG
Summary of the method: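 Recombinant human HPK1 preincubated with compound 60 min at 25 °C, then reaction with MBP (0.2 ug/ul, 2× stock) and ATP (20 μM, 2× stock) 60 min at 25 °C. ADP formed detected by ADP-Glo after ATP depletion and conversion to ATP; IC50 calculated from signal.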

[4] = system: IL-2 production in primary mouse CD3+ T cells; experiment: Cytokine measurement: IL-2 production in mouse CD3+ T cells (ELISA); assay type: cell-based; conditions: T-cell, plate bound anti-CD3, 40 hrs; for fold induction at 1 µM: 1 uM compound, read-out: IL-2 production Fold change (1 uM); for fold induction at 3 µM: 3 uM compound, read-out: IL-2 production Fold change (3 uM)
Experimental: Anti-CD3 Ab was used to provide signal 1 to stimulate mouse CD3+ T cells. Effect of compound stimulation on T cells was measure by IL2 ELISA. Briefly, anti-CD3 Ab was coated onto plates overnight. Isolated T cells from mouse splenocytes were incubated with plate bound CD3 in the presence and absence of compound for 40 hrs. After incubation, the supernatant was collected and IL2 level in the supernatant was determined by mouse IL2 ELISA kit.

Row | IC50 (HPK1 p-SLP-76) [nM] | Dmax (HPK1 protein [1]) [%] | Dmax (HPK1 protein [2]) [%] | IC50 (HPK1 protein [3]) [nM] | SMILES | fold induction at 1 µM [4] | fold induction at 3 µM [4]
1 | ≤ 300 | 95 | 95 | 10 to 100 | O=C1CCC(N2C(=O)c3cc(F)c(N4CCN(CCCS(=O)(=O)N5CCN(c6cccc(-c7cnc8[nH]cc(C9CC9)c8c7Cl)c6)C(=O)C5)CC4)cc3C2=O)C(=O)N1 (stereo not drawn) [Example 101, 5-(4-(3-((4-(3-(4-chloro-3-cyclopropyl-1H-pyrrolo[2,3-b]pyridin-5-yl)phenyl)-3-oxopiperazin-1-yl)sulfonyl)propyl)piperazin-1-yl)-2-(2,6-dioxopiperidin-3-yl)-6-fluoroisoindoline-1,3-dione] | 1.7 | 3.7
2 | ≤ 300 | 95 | 94 | 10 to 100 | O=C1CCC(N2C(=O)c3ccc(N4CCC(OCC(=O)N5CCN(c6cccc(-c7cnc8[nH]cc(CC(F)F)c8c7Cl)c6)C(=O)C5)CC4)cc3C2=O)C(=O)N1 (stereo not drawn) [Example 36] | 1.8 | 3.8

Row | SMILES | IC50 (HPK1 p-SLP-76) [nM] | Dmax (HPK1 protein [1]) [%] | Dmax (HPK1 protein [2]) [%] | IC50 (HPK1 protein [3]) [nM] | fold induction at 1 µM [4] | fold induction at 3 µM [4]
3 | O=C1CCC(c2ccc(C3CCN(CCCN4CCN(c5cccc(-c6cnc7[nH]cc(C8CC8)c7c6Cl)c5)C(=O)C4)CC3)cc2)C(=O)N1 (stereo not drawn) [Example 73, 3-(4-(1-(3-(4-(3-(4-chloro-3-cyclopropyl-1H-pyrrolo[2,3-b]pyridin-5-yl)phenyl)-3-oxopiperazin-1-yl)propyl)piperidin-4-yl)phenyl)piperidine-2,6-dione] | ≤ 300 | 95 | 87 | ≤ 10 | 2 | < 0.5
